{"source": "patent US20050181516A1", "about": "“Bioequivalence determination using expression profiling” (priority 2002, published 2005)", "key": {"psoriasis": {"system": "psoriasis", "experiment": "4 weeks clinical study of oral ASM981 in psoriatic patients", "assay_type": "in vivo, human", "conditions": "8 ASM981-treated patients, oral 60 mg/day (30 mg b.i.d.)", "experimental": "A clinical study was initiated with a standardized oral formulation of ASM981 (pimecrolimus) to treat psoriatic patients. The purpose of this study was both to investigate the nature of the alteration in gene expression profiles caused by the administration of a standardised oral formulation of pimecrolimus and to produce the necessary data to allow the bioequivalence of other pharmaceutically equivalent oral formulations of pimecrolimus to be tested. The dose used was 60 mg/day, given as 30 mg twice a day (b.i.d.). To make this dose the […] tablets were cut in half using a special cutter (Tablettenteiler NR.96) so as to obtain 30 mg of ASM981 or a matched amount of placebo. ASM981 was evaluated as treatment for psoriasis using an oral dose of 60 mg (30 mg b.i.d) during a 4 weeks clinical study. The oral formulation used was a highly standardized oral dosage form that could be produced in large amounts and with a highly uniform composition, this was oral formulation A. The cohort included 10 patients; 8 received oral formulation A and 2 received a placebo. Blood samples were collected before the first administration to establish the gene expression baseline and on days 13 or 14 after treatment with ASM981 or placebo and submitted to gene expression analysis in order to gain insights into the mechanisms of action of the compound."}, "[1]": {"system": "reperfusion after ischemia in the brain", "conditions": "in vivo; cited from earlier work"}, "contact dermatitis": {"system": "contact dermatitis", "conditions": "topical application and oral route; cited from earlier work"}, "macrophilin FKBP12": {"biological_target": "macrophilin FKBP12 (Homo sapiens, UniProt P62942)", "sequence (P62942 whole entry)": "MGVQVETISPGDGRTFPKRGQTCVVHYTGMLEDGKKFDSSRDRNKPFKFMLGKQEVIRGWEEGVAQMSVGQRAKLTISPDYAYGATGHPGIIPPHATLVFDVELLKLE", "conditions": "relative to FK506; cited from earlier work"}, "T cells and mast cells": {"system": "T cells and mast cells", "conditions": "in vitro; cited from earlier work"}, "[2]": {"system": "atopic dermatitis or psoriasis", "conditions": "topical formulation; cited from earlier work"}}, "data": [{"smiles": "CC[C@@H]1/C=C(\\C)C[C@H](C)C[C@H](OC)[C@H]2O[C@@](O)(C(=O)C(=O)N3CCCC[C@H]3C(=O)O[C@H](/C(C)=C/[C@@H]3CC[C@H](Cl)[C@H](OC)C3)[C@H](C)[C@@H](O)CC1=O)[C@H](C)C[C@@H]2OC", "note": "[ASM981, 33-Epichloro-33-desoxy-ascomycin]", "values": [{"measurement": "psoriasis (clinical data)", "setting": "psoriasis", "result": "reduction of psoriasis"}, {"measurement": "anti-inflammatory properties in reperfusion after ischemia in the brain", "setting": "[1]", "result": "successfully tested"}, {"measurement": "efficacy in animal models of contact dermatitis", "setting": "contact dermatitis", "result": "effective"}, {"measurement": "affinity for macrophilin FKBP12, fold lower than FK506", "setting": "macrophilin FKBP12", "result": 3, "unit": "fold"}, {"measurement": "IgE promoter activity", "setting": "T cells and mast cells", "result": "decrease"}, {"measurement": "T cell activation and proliferation", "setting": "T cells and mast cells", "result": "decrease"}, {"measurement": "inflammatory mediators release", "setting": "T cells and mast cells", "result": "impaired"}, {"measurement": "outcome of clinical trials in atopic dermatitis or psoriasis", "setting": "[2]", "result": "clinical regression"}]}]}
